How the values were obtained:
[1] = system: arthrite chronique à l'adjuvant; experiment: Anti-inflammatory activity: chronic adjuvant arthritis (preventive treatment); format: in vivo, rat
Protocol: L'injection d'adjuvant du type Freund dans une patte postérieure provoque, chez le rat, l'apparition rapide d'une lésion inflammatoire primaire dans cette patte, puis, après un temps de latence de 13 à 15 jours, le déclenchement d'une arthrite secondaire affectant notamment l'autre patte postérieure. Le test est pratiqué sur des rats mâles âgés de 42 à 50 jours, qui reçoivent en injection intraplantaire, 0,1 ml d'adjuvant de type "Freund" (suspension dans l'huile de vaseline de 6 mg par ml de mycobacterium butyricum tués).
Les animaux reçoivent le produit étudié, par voie orale, du jour 0 (jour de l'injection de l'adjuvant) jusqu'à la veille du sacrifice, pratiqué le jour 17. Des animaux témoins arthritiques, des animaux témoins normaux ne reçoivent que le véhicule. Les critères d'appréciation de l'activité des substances étudiées sont les augmentations de volume des pattes postérieures non injectées (inflammation secondaire) par rapport au volume moyen des pattes correspondantes de témoins normaux.
On détermine la DA50, c'est-à-dire la dose qui diminue de 50% les augmentations de volume des pattes postérieures des animaux traités par rapport aux animaux témoins.

[2] = system: mouvements répétés d'étirement et de torsion; experiment: Analgesic activity: acetic acid-induced stretching (writhing) test, Koster; format: in vivo, souris; conditions: 0.25 h; mouse, oral route half an hour before i.p. acetic acid 100 mg/kg; stretches counted for 15 min; dose giving 50 % decrease in number of stretches vs controls; read-out: DA50 (the source's name)
From the text: Le test employé est basé sur le fait signalé par R. KOSTER et Coll., (Fed. Proc. 1959, 16412) selon lequel l'injection intrapéritonéale d'acide acétique provoque, chez la souris, des mouvements répétés d'étirement et de torsion pouvant persister pendant plus de six heures. Les analgésiques préviennent ou diminuent ce syndrome qui peut être considéré comme l'extériorisation d'une douleur abdominale diffuse. On utilise une solution d'acide acétique à 1 % dans l'eau. La dose déclenchant le syndrome est dans ces conditions de 0,01 cm^3/g, soit 100 mg/kg d'acide acétique.
Le produit étudié est administré par voie buccale une demi-heure avant l'injection d'acide acétique, les souris étant à jeun depuis la veille de l'expérience.
Les étirements sont observés et comptés pour chaque souris pendant une période d'observation de quinze minutes commençant aussitôt après l'injection d'acide acétique.
Les résultats sont exprimés au moyen de la DA50, c'est-à-dire la dose qui permet d'obtenir une diminution de 50 % du nombre des étirements par rapport aux animaux témoins.

## COc1ccc(-n2c(-c3ccc(N(C)C)cc3)nnc2[C@H](C)O)cc1 [Exemple 11, 5-/4-(diméthylamino)-phényl/ 4-(4-méthoxyphényl)α-méthyl 4H-1,2,4-triazol-3-méthanol]
[1]; male rats, oral route from day 0 to the day before sacrifice on day 17, volume increase of non-injected hind paws (secondary inflammation), result given in words only
  activité anti-inflammatoire (arthrite chronique à l'adjuvant): activité notable
[2]
  ED50: 4 mg/kg

## COc1ccc(-n2c(-c3ccc(N(C)C)cc3)nnc2C(C)O)cc1 (stereo not drawn) [5-/4-(diméthylamino) phényl/ 4-(4-méthoxyphényl)α-méthyl 4H-1,2,4-triazole 3-méthanol]
[1]; general statement in the description: models of chronic inflammation
  activité anti-inflammatoire: une certaine activité anti-infiammatoire
